Test results from PubChem BioAssay AID328 (DTP/NCI, 2004).
Where “and” joins values, the source holds several entries; their conditions need not be identical. Identical values can stand only once. Toxic doses and inconclusive results are not listed. Rule for the calls: active = survival T/C of 150% or more; inactive = T/C below 125% in these data. Starred links: 1 amine or outer side, 2 acyl side, 3 side chain; linkers in the order of their positions; H or OH if unused. Positions of bridges follow the written chain, without caps; N, C: chain ends. Non-standard residues stand in square brackets, D forms with d. Residues, ends and D or L forms follow the SMILES beside them. Chains are numbered I, II in the order given. Actinocin(9to1) = Cc1c2oc3c(C)ccc(C(=O)[*:1])c3nc-2c(C(=O)[*:2])c(N)c1=O; NMeV = CN[CH](C(=O)O)C(C)C; Sar = CNCC(=O)O

Test system: BDF1 mice, P388 leukemia ip, median survival T/C
Test: NCI In Vivo Anticancer Drug Screen. Data for tumor model P388 Leukemia (intraperitoneal) in B6D2F1 (BDF1) mice
Conditions: endpoint: median survival time, higher = longer survival
Outline: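 Compound-treated tumour-bearing mice were compared with vehicle-treated controls. Survival was recorded, and the value is the treated-group measurement divided by the control-group measurement (T/C).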

[1] = dose: 100.0 mg/kg/injection, schedule: Q01DX009 (ip), vehicle: saline with Tween-80
[2] = dose: 100.0 mg/kg/injection, schedule: Q04DX003 (ip), vehicle: saline with Tween-80
[3] = dose: 200.0 mg/kg/injection, schedule: Q01DX009 (ip), vehicle: saline with Tween-80
[4] = dose: 200.0 mg/kg/injection, schedule: Q04DX003 (ip), vehicle: saline with Tween-80
[5] = dose: 400.0 mg/kg/injection, schedule: Q04DX003 (ip), vehicle: saline with Tween-80
[6] = dose: 50.0 mg/kg/injection, schedule: Q01DX009 (ip), vehicle: saline with Tween-80
[7] = dose: 25.0 mg/kg/injection, schedule: Q01DX009 (ip), vehicle: saline
[8] = dose: 50.0 mg/kg/injection, schedule: Q01DX009 (ip), vehicle: saline
[9] = dose: 100.0 mg/kg/injection, schedule: Q01DX009 (ip), vehicle: saline
[10] = dose: 62.5 mg/kg/injection, schedule: Q01DX010 (ip), vehicle: saline
[11] = dose: 125.0 mg/kg/injection, schedule: Q01DX010 (ip), vehicle: saline
[12] = dose: 250.0 mg/kg/injection, schedule: Q01DX010 (ip), vehicle: saline

Measured: T/C

CCOC(=O)C12CC=CC(CCC1)C2=O (stereo unspecified) (tested in a mixture with another compound)
inactive: [1] 100 % of control | [2] 90 % of control | [3] 104 % of control | [4] 95 % of control | dose: 400.0 mg/kg/injection, schedule: Q01DX009 (ip), vehicle: saline with Tween-80 90 % of control | [5] 104 % of control

Cc1nc2nc(N)nc(N)c2nc1Sc1ccc(Cl)cc1
inactive: [2] 91 % of control | [5] 88 % of control

COC(=O)/C=C1\Sc2ccc(C(F)(F)F)cc2NC1=O
inactive: [6] 91 % of control | [1] 91 % of control | [3] 91 % of control

CCCCCCCCCC[N+](C)(C)CC(O)C[N+](C)(C)CCCCCCCCCC
inactive: dose: 1.56 mg/kg/injection, schedule: Q01DX009 (ip), vehicle: saline 91 % of control and 109 % of control | dose: 3.12 mg/kg/injection, schedule: Q01DX009 (ip), vehicle: saline 104 % of control | dose: 3.13 mg/kg/injection, schedule: Q01DX009 (ip), vehicle: saline 100 % of control and 108 % of control | dose: 6.25 mg/kg/injection, schedule: Q01DX009 (ip), vehicle: saline 100 % of control and 109 % of control and 120 % of control | dose: 12.5 mg/kg/injection, schedule: Q01DX009 (ip), vehicle: saline 107 % of control and 109 % of control and 111 % of control

OC(Cc1cc(CC(O)(C(F)(F)F)C(F)(F)F)ncn1)(C(F)(F)F)C(F)(F)F
inactive: [1] 95 % of control | [3] 90 % of control

CCOC1CCC(C(C)=O)C(C#N)(C#N)C1(C#N)C#N (stereo unspecified)
inactive: dose: 6.25 mg/kg/injection, schedule: Q01DX001 (ip), vehicle: saline with Tween-80 108 % of control | dose: 12.5 mg/kg/injection, schedule: Q01DX001 (ip), vehicle: saline with Tween-80 123 % of control | dose: 25.0 mg/kg/injection, schedule: Q01DX001 (ip), vehicle: saline with Tween-80 110 % of control and 119 % of control | dose: 50.0 mg/kg/injection, schedule: Q01DX001 (ip), vehicle: saline with Tween-80 124 % of control

CNc1ccc2c(c1)C(=O)c1c(C)n(C)c3cccc-2c13
inactive: dose: 12.5 mg/kg/injection, schedule: Q01DX005 (ip), vehicle: saline with Tween-80 98 % of control | dose: 25.0 mg/kg/injection, schedule: Q01DX005 (ip), vehicle: saline with Tween-80 98 % of control

COc1ccc(NC(=O)Nc2c(Oc3ccc(Cl)cc3)ccc(Cl)c2S(=O)(=O)O)cc1Cl
inactive: [7] 109 % of control | [8] 86 % of control | [9] 104 % of control

Cc1c2oc3c(C)ccc(C(=O)NC4C(=O)NC(C(C)C)C(=O)N(C)CC(=O)N(C)CC(=O)N(C)C(C(C)C)C(=O)OC4C)c3nc-2c(C(=O)NC2C(=O)NC(C(C)C)C(=O)N(C)CC(=O)N(C)CC(=O)N(C)C(C(C)C)C(=O)OC2C)c(N)c1=O (stereo unspecified) (I: TV[Sar][Sar][NMeV] / II: TV[Sar][Sar][NMeV]; ester I:1-I:C, II:1-II:C; linker I:N-II:N via Actinocin(9to1); configuration not given here)
active: dose: 125.0 micrograms/kg/injection, schedule: Q01DX009 (ip), vehicle: saline + alcohol 190 % of control | dose: 250.0 micrograms/kg/injection, schedule: Q01DX009 (ip), vehicle: saline + alcohol 233 % of control | dose: 500.0 micrograms/kg/injection, schedule: Q01DX009 (ip), vehicle: saline + alcohol 239 % of control | dose: 750.0 micrograms/kg/injection, schedule: Q04DX003 (ip), vehicle: saline + alcohol 218 % of control | dose: 1500.0 micrograms/kg/injection, schedule: Q04DX003 (ip), vehicle: saline + alcohol 239 % of control and 166 % of control | dose: 3000.0 micrograms/kg/injection, schedule: Q04DX003 (ip), vehicle: saline + alcohol 175 % of control

O=C(O)COCc1ccccc1
inactive: dose: 100.0 mg/kg/injection, schedule: Q01DX001 (ip), vehicle: saline sonified 100 % of control | dose: 200.0 mg/kg/injection, schedule: Q01DX001 (ip), vehicle: saline sonified 104 % of control | dose: 400.0 mg/kg/injection, schedule: Q01DX001 (ip), vehicle: saline sonified 117 % of control

c1ccc2c(c1)cc1c3nncn3ncn21
inactive: [6] 90 % of control | [1] 114 % of control

C#CCOCC(CCl)OC(=O)Nc1ccccc1 (stereo unspecified)
inactive: [7] 95 % of control | [8] 104 % of control | dose: 50.0 mg/kg/injection, schedule: Q04DX003 (ip), vehicle: saline with Tween-80 87 % of control | [9] 104 % of control | [2] 95 % of control | dose: 200.0 mg/kg/injection, schedule: Q01DX009 (ip), vehicle: saline 109 % of control | [5] 100 % of control

CSc1ncnc2c1ncn2C1CCCO1 (stereo unspecified)
inactive: dose: 25.0 mg/kg/injection, schedule: Q01DX009 (ip), vehicle: Klucel (hydroxypropylcellulose) (HPC) 95 % of control | dose: 50.0 mg/kg/injection, schedule: Q01DX009 (ip), vehicle: Klucel (hydroxypropylcellulose) (HPC) 119 % of control | dose: 100.0 mg/kg/injection, schedule: Q01DX009 (ip), vehicle: Klucel (hydroxypropylcellulose) (HPC) 109 % of control | dose: 100.0 mg/kg/injection, schedule: Q04DX003 (ip), vehicle: saline 104 % of control | dose: 150.0 mg/kg/injection, schedule: Q01DX009 (ip), vehicle: Klucel (hydroxypropylcellulose) (HPC) 87 % of control

CC(=O)Nc1ccc2nc3ccc(NC(C)=O)cc3[n+](-c3ccccc3)c2c1
active: dose: 31.3 mg/kg/injection, schedule: Q01DX010 (ip), vehicle: saline 168 % of control | [10] 172 % of control | [11] 181 % of control | [12] 150 % of control

CCCCNC(C)(C)C(SC(C)=O)c1ccc(Cl)cc1 (stereo unspecified)
inactive: [2] 108 % of control | [4] 112 % of control

O=S(=O)(F)c1ccc(N=C=S)cc1
inactive: dose: 6.25 mg/kg/injection, schedule: Q01DX009 (ip), vehicle: saline with Tween-80 120 % of control | dose: 12.5 mg/kg/injection, schedule: Q01DX009 (ip), vehicle: saline with Tween-80 116 % of control | dose: 25.0 mg/kg/injection, schedule: Q01DX009 (ip), vehicle: saline with Tween-80 112 % of control

CC(=O)Oc1cc2c[n+](C)c3c4cc(OC(C)=O)c(OC(C)=O)cc4ccc3c2cc1OC(C)=O
inactive: dose: 20.0 mg/kg/injection, schedule: Q01DX009 (ip), vehicle: saline 95 % of control | dose: 40.0 mg/kg/injection, schedule: Q01DX009 (ip), vehicle: saline 104 % of control | dose: 80.0 mg/kg/injection, schedule: Q01DX009 (ip), vehicle: saline 109 % of control | dose: 120.0 mg/kg/injection, schedule: Q01DX009 (ip), vehicle: saline 118 % of control

Cc1ncc([N+](=O)[O-])n1CCSC(=N)N
inactive: [2] 105 % of control | [4] 105 % of control

c1ccc(CCSc2ncnc3nc[nH]c23)cc1
inactive: [10] 95 % of control and 104 % of control | [11] 95 % of control and 100 % of control | [12] 100 % of control | dose: 500.0 mg/kg/injection, schedule: Q01DX010 (ip), vehicle: saline 86 % of control and 109 % of control

CC(C)/[N+]([O-])=C/C=C/c1ccccc1
inactive: dose: 100.0 mg/kg/injection, schedule: Q04DX003 (ip), vehicle: Klucel (hydroxypropylcellulose) (HPC) 100 % of control | dose: 200.0 mg/kg/injection, schedule: Q04DX003 (ip), vehicle: Klucel (hydroxypropylcellulose) (HPC) 100 % of control | dose: 400.0 mg/kg/injection, schedule: Q04DX003 (ip), vehicle: Klucel (hydroxypropylcellulose) (HPC) 113 % of control

CC[N+](CC)(CC)CCCC[N+](CC)(CC)CC
inactive: dose: 12.5 mg/kg/injection, schedule: Q01DX009 (ip), vehicle: water 97 % of control | dose: 25.0 mg/kg/injection, schedule: Q01DX009 (ip), vehicle: water 95 % of control | dose: 25.0 mg/kg/injection, schedule: Q04DX003 (ip), vehicle: water 109 % of control | dose: 50.0 mg/kg/injection, schedule: Q01DX009 (ip), vehicle: water 100 % of control | dose: 50.0 mg/kg/injection, schedule: Q04DX003 (ip), vehicle: water 104 % of control

FC(F)(F)c1ccc2c(c1)N(CCCN1CCN(CCOc3ccccc3)CC1)c1ccccc1S2
inactive: dose: 6.25 mg/kg/injection, schedule: Q04DX003 (ip), vehicle: saline with Tween-80 96 % of control and 115 % of control | dose: 12.5 mg/kg/injection, schedule: Q04DX003 (ip), vehicle: saline with Tween-80 93 % of control and 115 % of control | dose: 25.0 mg/kg/injection, schedule: Q04DX003 (ip), vehicle: saline with Tween-80 114 % of control and 122 % of control

Clc1c(Cl)c(C[P+](CCP(c2ccccc2)c2ccccc2)(c2ccccc2)c2ccccc2)c(Cl)c(Cl)c1C[P+](CCP(c1ccccc1)c1ccccc1)(c1ccccc1)c1ccccc1
inactive: dose: 3.13 mg/kg/injection, schedule: Q01DX009 (ip), vehicle: suspension in saline 114 % of control
